Experiments:
[1] = biological target: T1, hNaV1.7 channel (Homo sapiens, UniProt Q15858); test: Automated patch-clamp block of hNaV1.7 peak Na+ current in CHO cells; format: cell-based; conditions: for IC50: CHO cells stably expressing hNaV1.7, SyncroPatch 384 PE whole-cell, holding -100 mV, -10 mV test pulse 50 ms every 5 s, room temperature 18-22°C, 0.3% BSA, steady state or end of 15-min application, mean, S.E.M. and n cells; for hNaV1.7 IC50 versus WT: ratio of analogue mean IC50 to HwTx-IV WT mean IC50 on hNaV1.7
T1 construct: expressed in transfected cells
Method in brief: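 Automated whole-cell patch clamp on CHO cells stably expressing hNaV1.7, held at −100 mV at 18–22°C. Peak current evoked by 50 ms steps to −10 or 0 mV every 5 s; HwTx-IV analogues applied in extracellular solution with 0.3% BSA. Percent inhibition taken at steady-state block or after 15 min application.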

[2] = biological target: T2, hNaV1.6 channel (Homo sapiens, UniProt Q9UQD0); test: Automated patch-clamp block of hNaV1.6 peak Na+ current in HEK-293 cells; format: cell-based; conditions: for IC50: HEK-293 cells stably expressing hNaV1.6, SyncroPatch 384 PE whole-cell, holding -100 mV, 0 mV test pulse 50 ms every 5 s, room temperature 18-22°C, 0.3% BSA, steady state or end of 15-min application, mean, S.E.M. and n cells; for hNaV1.6 IC50 versus WT: ratio of analogue mean IC50 to HwTx-IV WT mean IC50 on hNaV1.6
T2 construct: expressed in transfected cells
Method in brief: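 Whole-cell automated patch clamp at −100 mV holding, room temperature (18–22°C), CsF-based internal, 0.3% BSA in external solution; 50 ms steps to −10 or 0 mV every 5 s. Percent peak-current inhibition taken at steady-state block or after 15 min application, used for dose-response curves.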

T1 sequence (Q15858 whole entry): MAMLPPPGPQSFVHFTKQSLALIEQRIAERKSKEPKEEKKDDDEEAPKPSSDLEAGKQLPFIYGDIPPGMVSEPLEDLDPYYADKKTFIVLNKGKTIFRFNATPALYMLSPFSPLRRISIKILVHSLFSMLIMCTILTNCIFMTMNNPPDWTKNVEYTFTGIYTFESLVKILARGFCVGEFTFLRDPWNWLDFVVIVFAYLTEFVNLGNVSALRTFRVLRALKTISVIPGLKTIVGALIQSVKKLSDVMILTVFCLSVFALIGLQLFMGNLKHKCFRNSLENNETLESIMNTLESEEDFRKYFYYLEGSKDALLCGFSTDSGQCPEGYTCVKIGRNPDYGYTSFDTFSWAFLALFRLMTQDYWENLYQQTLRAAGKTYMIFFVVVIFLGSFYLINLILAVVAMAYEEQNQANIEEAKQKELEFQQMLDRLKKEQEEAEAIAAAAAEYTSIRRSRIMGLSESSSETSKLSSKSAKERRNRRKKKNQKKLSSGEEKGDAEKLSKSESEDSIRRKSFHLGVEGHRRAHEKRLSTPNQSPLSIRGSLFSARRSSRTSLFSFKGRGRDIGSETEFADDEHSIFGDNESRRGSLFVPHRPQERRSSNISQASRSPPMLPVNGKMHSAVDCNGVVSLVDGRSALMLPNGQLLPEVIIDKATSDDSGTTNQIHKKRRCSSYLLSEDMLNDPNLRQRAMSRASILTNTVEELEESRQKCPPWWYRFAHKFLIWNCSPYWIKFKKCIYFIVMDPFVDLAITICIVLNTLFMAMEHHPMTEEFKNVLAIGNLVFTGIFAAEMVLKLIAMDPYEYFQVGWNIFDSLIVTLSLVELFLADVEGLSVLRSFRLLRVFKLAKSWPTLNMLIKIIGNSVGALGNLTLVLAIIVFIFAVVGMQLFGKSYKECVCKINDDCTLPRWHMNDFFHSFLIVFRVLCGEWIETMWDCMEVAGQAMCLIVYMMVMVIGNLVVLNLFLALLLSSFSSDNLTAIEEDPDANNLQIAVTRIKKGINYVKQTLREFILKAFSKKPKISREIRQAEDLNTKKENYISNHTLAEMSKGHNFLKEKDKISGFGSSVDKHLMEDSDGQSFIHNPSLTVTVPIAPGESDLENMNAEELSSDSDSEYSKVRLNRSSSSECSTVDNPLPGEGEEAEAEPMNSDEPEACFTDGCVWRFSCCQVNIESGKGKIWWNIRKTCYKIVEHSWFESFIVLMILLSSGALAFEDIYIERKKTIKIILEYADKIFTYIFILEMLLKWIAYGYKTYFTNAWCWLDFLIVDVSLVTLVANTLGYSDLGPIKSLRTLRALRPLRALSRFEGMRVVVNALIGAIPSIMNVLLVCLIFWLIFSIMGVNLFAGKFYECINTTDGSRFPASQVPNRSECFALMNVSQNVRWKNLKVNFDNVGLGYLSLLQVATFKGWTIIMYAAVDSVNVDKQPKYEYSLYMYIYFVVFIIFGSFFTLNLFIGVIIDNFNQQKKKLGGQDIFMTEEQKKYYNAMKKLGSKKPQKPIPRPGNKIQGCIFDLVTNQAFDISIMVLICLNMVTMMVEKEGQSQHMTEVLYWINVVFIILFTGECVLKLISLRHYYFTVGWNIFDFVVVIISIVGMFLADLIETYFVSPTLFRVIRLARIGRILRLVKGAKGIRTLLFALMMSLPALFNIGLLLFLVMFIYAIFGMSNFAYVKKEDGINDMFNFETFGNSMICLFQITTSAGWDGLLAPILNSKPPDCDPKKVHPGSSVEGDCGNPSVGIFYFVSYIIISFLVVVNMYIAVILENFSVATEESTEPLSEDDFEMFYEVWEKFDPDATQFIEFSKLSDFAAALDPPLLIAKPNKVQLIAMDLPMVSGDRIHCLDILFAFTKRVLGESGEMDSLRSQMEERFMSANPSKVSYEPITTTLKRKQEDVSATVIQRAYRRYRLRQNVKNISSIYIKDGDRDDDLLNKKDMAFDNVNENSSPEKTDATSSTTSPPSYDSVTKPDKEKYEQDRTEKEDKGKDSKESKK
T2 sequence (Q9UQD0 whole entry): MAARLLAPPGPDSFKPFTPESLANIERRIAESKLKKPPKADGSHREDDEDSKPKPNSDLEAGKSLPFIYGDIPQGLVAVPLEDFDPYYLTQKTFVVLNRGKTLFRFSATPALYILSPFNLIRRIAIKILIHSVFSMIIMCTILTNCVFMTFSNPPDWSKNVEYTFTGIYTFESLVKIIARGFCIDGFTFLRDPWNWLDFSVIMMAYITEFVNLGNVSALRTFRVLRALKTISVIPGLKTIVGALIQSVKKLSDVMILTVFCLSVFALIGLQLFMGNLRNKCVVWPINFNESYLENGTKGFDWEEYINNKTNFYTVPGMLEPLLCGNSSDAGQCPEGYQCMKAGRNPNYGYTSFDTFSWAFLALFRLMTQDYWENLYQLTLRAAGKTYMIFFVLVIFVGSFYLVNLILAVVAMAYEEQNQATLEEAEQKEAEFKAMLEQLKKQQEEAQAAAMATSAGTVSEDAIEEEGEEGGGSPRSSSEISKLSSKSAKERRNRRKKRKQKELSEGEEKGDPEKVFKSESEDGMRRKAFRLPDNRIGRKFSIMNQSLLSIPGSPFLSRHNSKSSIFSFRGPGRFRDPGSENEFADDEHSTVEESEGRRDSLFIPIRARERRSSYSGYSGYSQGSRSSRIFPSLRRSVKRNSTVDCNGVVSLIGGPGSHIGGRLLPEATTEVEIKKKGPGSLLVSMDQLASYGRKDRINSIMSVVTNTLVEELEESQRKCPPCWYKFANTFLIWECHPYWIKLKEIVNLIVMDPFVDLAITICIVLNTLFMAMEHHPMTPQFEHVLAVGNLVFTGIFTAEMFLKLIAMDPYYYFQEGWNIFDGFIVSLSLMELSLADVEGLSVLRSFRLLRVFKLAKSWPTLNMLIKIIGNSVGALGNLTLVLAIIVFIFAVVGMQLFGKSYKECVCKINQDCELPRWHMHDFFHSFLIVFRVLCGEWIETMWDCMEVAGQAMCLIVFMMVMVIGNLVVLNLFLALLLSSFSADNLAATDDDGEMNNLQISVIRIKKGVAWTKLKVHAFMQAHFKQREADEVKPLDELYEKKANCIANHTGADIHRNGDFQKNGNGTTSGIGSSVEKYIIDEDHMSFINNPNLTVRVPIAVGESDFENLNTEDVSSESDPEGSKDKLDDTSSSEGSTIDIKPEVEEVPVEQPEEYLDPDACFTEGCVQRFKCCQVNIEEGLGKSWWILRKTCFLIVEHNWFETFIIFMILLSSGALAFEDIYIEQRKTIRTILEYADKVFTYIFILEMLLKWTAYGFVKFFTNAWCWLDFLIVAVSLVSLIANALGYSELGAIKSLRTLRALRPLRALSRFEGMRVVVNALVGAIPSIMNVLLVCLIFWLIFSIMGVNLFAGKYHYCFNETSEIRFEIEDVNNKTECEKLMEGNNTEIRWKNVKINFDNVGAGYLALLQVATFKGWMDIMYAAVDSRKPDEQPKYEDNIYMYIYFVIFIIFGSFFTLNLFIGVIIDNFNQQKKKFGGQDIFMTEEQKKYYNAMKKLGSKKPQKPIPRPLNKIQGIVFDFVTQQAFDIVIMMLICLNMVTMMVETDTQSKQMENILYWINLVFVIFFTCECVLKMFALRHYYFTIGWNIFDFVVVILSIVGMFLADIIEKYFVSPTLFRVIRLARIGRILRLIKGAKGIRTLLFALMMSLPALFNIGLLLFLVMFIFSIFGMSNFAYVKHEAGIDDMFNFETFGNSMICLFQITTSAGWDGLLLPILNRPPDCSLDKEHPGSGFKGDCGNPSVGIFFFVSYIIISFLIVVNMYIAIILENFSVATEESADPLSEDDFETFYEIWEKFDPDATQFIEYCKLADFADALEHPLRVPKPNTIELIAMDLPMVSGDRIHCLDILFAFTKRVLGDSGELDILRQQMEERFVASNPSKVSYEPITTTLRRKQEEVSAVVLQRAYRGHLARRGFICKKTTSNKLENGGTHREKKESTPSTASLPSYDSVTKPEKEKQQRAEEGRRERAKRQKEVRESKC

`CC[C@H](C)[C@H](NC(=O)[C@H](CCC(N)=O)NC(=O)[C@H](Cc1ccc(O)cc1)NC(=O)[C@H](CCCCN)NC(=O)[C@@H]1CSSC[C@@H]2NC(=O)[C@H](CCC(N)=O)NC(=O)[C@H](CC(=O)O)NC(=O)[C@H](CC(N)=O)NC(=O)[C@H](CO)NC(=O)[C@@H]3CCCN3C(=O)[C@H](CC(N)=O)NC(=O)[C@@H]3CSSC[C@H](NC(=O)[C@H](C(C)C)NC(=O)[C@H](CC(C)C)NC(=O)[C@H](CCCCN)NC(=O)[C@H](CO)NC(=O)[C@H](CO)NC(=O)[C@H](CCCCN)NC(=O)[C@H](CSSC[C@H](NC(=O)[C@@H](N)CCC(=O)O)C(=O)N[C@@H](CC(C)C)C(=O)N[C@@H](CCC(=O)O)C(=O)N[C@@H]([C@@H](C)CC)C(=O)N[C@@H](Cc4ccccc4)C(=O)N[C@@H](CCCCN)C(=O)N[C@@H](C)C(=O)N3)NC2=O)C(=O)N[C@@H](CO)C(=O)N[C@@H](C)C(=O)N[C@@H](CCCCN)C(=O)N[C@@H]([C@@H](C)O)C(=O)N[C@@H](CCCNC(=N)N)C(=O)N[C@@H](Cc2c[nH]c3ccccc23)C(=O)N1)C(N)=O` [HwTx-IV R ^26A] was tested, and the IC50 [1] was 112 nM, the “hNaV1.7 IC50 versus WT” value [1] was 11.28 and the IC50 [2] was 614 nM. The “hNaV1.6 IC50 versus WT” value [2] was 2.71.
In the case of `CC[C@H](C)[C@H](NC(=O)[C@H](CCC(N)=O)NC(=O)[C@H](Cc1ccc(O)cc1)NC(=O)[C@H](CCCCN)NC(=O)[C@@H]1CSSC[C@@H]2NC(=O)[C@H](CCC(N)=O)NC(=O)[C@H](CC(=O)O)NC(=O)[C@H](CC(N)=O)NC(=O)[C@H](CO)NC(=O)[C@@H]3CCCN3C(=O)[C@H](CC(N)=O)NC(=O)[C@@H]3CSSC[C@H](NC(=O)[C@H](C(C)C)NC(=O)[C@H](CC(C)C)NC(=O)[C@H](CCCCN)NC(=O)[C@H](CO)NC(=O)[C@H](CO)NC(=O)[C@H](CCCCN)NC(=O)[C@H](CSSC[C@H](NC(=O)[C@@H](N)CCC(=O)O)C(=O)N[C@@H](CC(C)C)C(=O)N[C@@H](CCC(=O)O)C(=O)N[C@@H]([C@@H](C)CC)C(=O)N[C@@H](Cc4ccccc4)C(=O)N[C@@H](CCCCN)C(=O)N[C@@H](C)C(=O)N3)NC2=O)C(=O)N[C@@H](CO)C(=O)N[C@@H](CCC(N)=O)C(=O)N[C@@H](CCCCN)C(=O)N[C@@H]([C@@H](C)O)C(=O)N[C@@H](CCCNC(=N)N)C(=O)N[C@@H](Cc2c[nH]c3ccccc23)C(=O)N1)C(N)=O` [HwTx-IV R ^26Q], the IC50 [1] is reported as 141 nM, the “hNaV1.7 IC50 versus WT” value [1] is reported as 14.28 and the IC50 [2] is reported as over 1000 nM. For the same molecule, the “hNaV1.6 IC50 versus WT” value [2] was over 4.4.
With `CC[C@H](C)[C@H](NC(=O)[C@H](CCC(N)=O)NC(=O)[C@H](Cc1c[nH]c2ccccc12)NC(=O)[C@H](CCCCN)NC(=O)[C@@H]1CSSC[C@@H]2NC(=O)[C@H](CCC(N)=O)NC(=O)[C@H](CC(=O)O)NC(=O)[C@H](CC(N)=O)NC(=O)[C@H](CO)NC(=O)[C@@H]3CCCN3C(=O)[C@H](CC(N)=O)NC(=O)[C@@H]3CSSC[C@H](NC(=O)[C@H](C(C)C)NC(=O)[C@H](CC(C)C)NC(=O)[C@H](CCCCN)NC(=O)[C@H](CO)NC(=O)[C@H](CO)NC(=O)[C@H](CCCCN)NC(=O)[C@H](CSSC[C@H](NC(=O)[C@@H](N)CCC(=O)O)C(=O)N[C@@H](CC(C)C)C(=O)N[C@@H](CCC(=O)O)C(=O)N[C@@H]([C@@H](C)CC)C(=O)N[C@@H](Cc4ccccc4)C(=O)N[C@@H](CCCCN)C(=O)N[C@@H](C)C(=O)N3)NC2=O)C(=O)N[C@@H](CO)C(=O)N[C@@H](CCCNC(=N)N)C(=O)N[C@@H](CCCCN)C(=O)N[C@@H]([C@@H](C)O)C(=O)N[C@@H](CCCNC(=N)N)C(=O)N[C@@H](Cc2c[nH]c3ccccc23)C(=O)N1)C(N)=O` [HwTx-IV Y^33W] the IC50 [1] was 22.2 nM, the “hNaV1.7 IC50 versus WT” value [1] was 2.24 and the IC50 [2] was 207 nM. For the same molecule, the “hNaV1.6 IC50 versus WT” value [2] was 0.91.

From PMC8722715 (Frontiers in Cell and Developmental Biology, 2021)
